{"source": "patent US20130326728A1", "about": "“AGENTS FOR INCREASED RESISTANCE AGAINST OXIDATIVE STRESS CONDITIONS” (KATHOLIEKE UNIVERSITEIT LEUVEN, priority 2010, published 2013)", "key": {"[1]": {"system": "Saccharomyces cerevisiae strain BY4741", "assay": "Halo test of H2O2 tolerance of OSIP-overexpressing yeast", "assay_type": "cell-based", "conditions": "15 μL of 240 mM H2O2, galactose vs glucose agar, 48 h at 30° C.; versus negative controls", "description": "Resistance of the selected yeast transformants and the two positive control transformants against oxidative stress induced by H2O2 was additionally assayed in a halo test, by spotting 15 μL of 240 mM H2O2 on SC-ura agar, containing either glucose or galactose, and inoculated with 1/200 of overnight yeast culture as described previously (23). After 48 h of incubation at 30° C., diameters of the halos were measured.\nThe halo-test comprises a predefined but continuous concentration gradient of H2O2, applied to inoculated agar plates. Upon incubation, circles (halos) of growth inhibition are visible. By comparing the diameter of the halos of plates with yeast grown on glucose (not allowing for expression of the OSIP) and galactose (inducing overexpression of the OSIP) the effect of the OSIP on oxidative stress tolerance was quantified."}, "[2]": {"system": "peroxide-induced ROS in yeast", "assay": "ROS accumulation assay (H2DCFDA) in peroxide-treated yeast with exogenous OSIP", "assay_type": "cell-based", "conditions": "500 μM peptide, compared to mock treatment", "description": "(§1) ROS, after H2O2 treatment in the absence or presence of 500 μM OSIP, were determined using 2,7-dichlorodihydrofluorescein diacetate (H2DCFDA) staining as described previously (24). Survival of WT yeast in PBS following H2O2 treatment in the absence or presence of 500 μM OSIP was assessed as described (25).\n(§2) The effect of OSIP108 on endogenous ROS levels induced by peroxide in yeast were evaluated. Peroxide-induced ROS in yeast in the absence and presence of OSIP108 were measured using 2,7-dichlorodihydrofluorescein diacetate (H2DCFDA) (FIG. 3A). […] Moreover, we found the survival of peroxide-treated yeast cells (5 mM) to increase 27-fold upon incubation with 500 μM OSIP108 (FIG. 3B)."}, "WT yeast": {"system": "WT yeast", "assay": "Survival assay of peroxide-treated WT yeast with exogenous OSIP", "assay_type": "cell-based", "conditions": "for effect on survival of yeast cells after treatment with peroxide (in words): exogenous addition of the peptides", "description": "as §1, §2"}, "[3]": {"system": "CHO cell lines expressing ATP7b", "assay": "Viability (MTT) of CHO cells expressing ATP7b under toxic copper", "assay_type": "cell-based", "conditions": "100 μM OSIP108, 0.75 mM copper, 48 h", "description": "(§3) No: viability of cells without addition of peptide; OSIP: OSIP108 was added simultaneously added to cells together with Cu; and OSIP pre: cells were preincubated with the peptide for 12 h prior to addition of Cu.\n(§4) CHO cell lines expressing either ATP7b or ATP7b mutant H1069Q (a mutation frequently found in patients having Wilson's Disease) were incubated with OSIP108 (100 μM). The viability of cells was determined after 48 h exposure to toxic copper concentrations of 0.75 mM by MTT assay and calculated relative to cells that receive no copper (100%)."}, "Col-0 A. thaliana plants": {"system": "Col-0 A. thaliana plants", "assay": "Paraquat lesion diameter on A. thaliana leaves infiltrated with OSIP108", "assay_type": "in vivo, Arabidopsis thaliana", "conditions": "three days after paraquat (5 μl, 100 μM); leaf infiltrated with 100 μM OSIP108 24 h before; control 4.45±1.37 mm", "description": "At least twelve soil grown, 4 week old Col-0 A. thaliana plants, were used in which one leaf of each plant was syringe-infiltrated with 100 μM OSIP108 dissolved in 1% dimethyl sulphoxide (DMSO). At least 12 control plants were mock treated with 1% DMSO only. After 24 h incubation in the growth chamber, the plants were inoculated with a drop of 5 μl paraquat (100 μM). The lesion diameters caused by the paraquat treatment were measured and compared 2 and 3 days after the treatment."}, "[4]": {"system": "human hepatoma cell line HepG2", "assay": "HepG2 cell viability (MTT) in presence of copper or cisplatin", "assay_type": "cell-based", "description": "The mean and SE of three experiments is shown. No: viability of cells without addition of peptide; OSIP: OSIP108 was added simultaneously added to cells together with Cu; OSIP pre, cells were preincubated with OSIP108 for 12 h prior to addition of Cu.\nThe human hepatoma cell line HepG2 which naturally expresses hATP7B was incubated with 100 μM of peptide OSIP108. The viability of cells was determined after 48 h exposure to toxic copper concentrations of 0.75 mM by MTT assay. The viability was calculated relative to cells that receive no copper (100%)."}, "yeast BY4741": {"system": "yeast BY4741", "assay": "Yeast growth inhibition by apoptosis-inducing compounds (OD600) with or without OSIP108", "assay_type": "cell-based, Saccharomyces cerevisiae", "description": "Yeast growth was monitored upon treatment with different apoptosis-inducing compounds in the presence (black bars) or absence (white bars) of 200 μM OSIP108. Percentage growth was calculated as the ratio of the OD600 of the treated culture over an unstressed yeast culture after 10 h (A) or 48 h (B) of incubation.\nIn this respect, in parallel with mitochondrial copper toxicity, the use of the other mitochondrial toxins, in casu valproic acid, tunicamycin, doxycyclin and cisplatin, expand the range of causes of mitochondrial dysfunction and help find a broader basis for compounds rescuing mitochondrial dysfunction. Optical density (OD600) of yeast BY4741 was monitored upon treatment with different apoptosis-inducing compounds in the presence or absence of 200 μM OSIP108. OSIP108 and apoptosis-inducers were added simultaneously to the yeast cells. Percentage growth was calculated as the ratio of the OD600 of the treated culture over an unstressed yeast culture after 10 h or 48 h of incubation. […] Also, OSIP108 but not OSIP(C3A) can rescue copper- and cisplatin-induced growth inhibition of yeast"}, "[5]": {"system": "CHO cell lines expressing ATP7b mutant H1069Q", "assay": "Viability (MTT) of CHO cells expressing ATP7b mutant H1069Q under toxic copper", "assay_type": "cell-based", "conditions": "100 μM OSIP108, 0.75 mM copper, 48 h", "description": "as §3, §4"}, "yeast Δccc2 mutant [6]": {"system": "yeast Δccc2 mutant", "assay": "Copper-induced growth inhibition of yeast Δccc2 mutant overexpressing the OSIP108 gene", "assay_type": "cell-based", "conditions": "overexpression of the gene encoding OSIP108", "description": "Copper ions are known to induce apoptosis of hepatocytes, one of the underlying mechanisms of copper-induced toxicity in Wilson's Disease (WD). WD is caused by mutations in the ATPase ATP7b."}, "yeast Δccc2 mutant [7]": {"system": "yeast Δccc2 mutant", "assay": "Exogenous OSIP108 on yeast Δccc2 mutant at lethal copper dose (MTT viability dye halo, ROS)", "assay_type": "cell-based", "conditions": "exogenous addition", "description": "This was tested by spotting 5 μL of 10 mM OSIP108 onto agar plates containing a yeast Δccc2 mutant, 500 μM CuSO4 and a viability dye based on MTT. Plates were incubated for 24 h and placed at 4° C. for 2 days. Blue halos were indicative of surviving yeast cells."}}, "note": "Entries after “also recorded” stand apart in the source; their conditions may differ.", "data": [{"sequence": "MIIINNDNYLLLFYNNN (listed as Arabidopsis thaliana) [SIP14—1]", "values": [{"measurement": "halo test: average difference in halo diameter / tolerance to H2O2", "setting": "[1]", "result": "significant enhanced tolerance"}, {"measurement": "peroxide-induced endogenous ROS (DCF fluorescence intensity)", "setting": "[2]", "result": "decrease in the amount of endogenous ROS"}, {"measurement": "effect on survival of yeast cells after treatment with peroxide (in words)", "setting": "WT yeast", "result": "less effect than SIP108"}]}, {"sequence": "MIIIYYCFIIIIN (listed as Arabidopsis thaliana) [SIP14—2]", "values": [{"measurement": "halo test: average difference in halo diameter / tolerance to H2O2", "setting": "[1]", "result": "significant enhanced tolerance"}, {"measurement": "peroxide-induced endogenous ROS (DCF fluorescence intensity)", "setting": "[2]", "result": "decrease in the amount of endogenous ROS"}, {"measurement": "effect on survival of yeast cells after treatment with peroxide (in words)", "setting": "WT yeast", "result": "less effect than SIP108"}]}, {"sequence": "MLCVLQGLRE (listed as Arabidopsis thaliana) [OSIP108]", "values": [{"measurement": "halo test: average difference in halo diameter / tolerance to H2O2", "setting": "[1]", "result": "significantly lower"}, {"measurement": "copper resistance / viability of CHO cells expressing ATP7b", "setting": "[3]", "result": "enhanced the copper resistance; also recorded: significantly enhances copper resistance"}, {"measurement": "average lesion diameter", "setting": "Col-0 A. thaliana plants", "result": "2.18±1.60", "unit": "mm"}, {"measurement": "copper resistance of HepG2 (viability)", "setting": "[4]; FIG. 5, 100 μM OSIP108, 0.75 mM copper, 48 h, MTT", "result": "significantly enhances copper resistance"}, {"measurement": "survival of HepG2 cells in the presence of copper or cisplatin", "setting": "[4]; pre-incubation with peptide", "result": "increased survival"}, {"measurement": "rescue of copper- and cisplatin-induced growth inhibition of yeast", "setting": "yeast BY4741", "result": "can rescue"}, {"measurement": "yeast growth in presence of cisplatin", "setting": "yeast BY4741; 200 uM OSIP108, 250 and 125 μM cisplatin, compared to control treatment", "result": "significant increase in growth"}, {"measurement": "rescue of yeast growth inhibition by other apoptosis-inducers", "setting": "yeast BY4741; 200 μM OSIP108, apoptosis-inducers other than cisplatin", "result": "fails to rescue"}, {"measurement": "peroxide-induced endogenous ROS (DCF fluorescence intensity)", "setting": "[2]", "result": "significantly lower"}, {"measurement": "increase of survival of peroxide-treated yeast cells", "setting": "WT yeast; 5 mM peroxide, 500 μM OSIP108", "result": 27, "unit": "fold"}, {"measurement": "copper resistance / viability of CHO cells expressing ATP7b mutant H1069Q", "setting": "[5]", "result": "enhanced the copper resistance; also recorded: significantly enhances copper resistance"}, {"measurement": "copper-induced growth inhibition of Δccc2 mutant", "setting": "yeast Δccc2 mutant [6]", "result": "could alleviate copper-induced growth inhibition"}, {"measurement": "copper-induced accumulation of reactive oxygen species (ROS) in Δccc2 mutant", "setting": "yeast Δccc2 mutant [7]", "result": "reduced"}, {"measurement": "viability of the Δccc2 yeast mutant", "setting": "yeast Δccc2 mutant [7]; in presence of copper", "result": "increased viability"}, {"measurement": "survival of Δccc2 yeast mutant at lethal copper dose", "setting": "yeast Δccc2 mutant [7]; 5 μL of 10 mM OSIP108 spotted, 500 μM CuSO4", "result": "induces survival"}]}, {"sequence": "MLMYRMRSGAN (listed as Arabidopsis thaliana) [SIP11]", "values": [{"measurement": "halo test: average difference in halo diameter / tolerance to H2O2", "setting": "[1]", "result": "significant enhanced tolerance"}, {"measurement": "peroxide-induced endogenous ROS (DCF fluorescence intensity)", "setting": "[2]", "result": "decrease in the amount of endogenous ROS"}, {"measurement": "effect on survival of yeast cells after treatment with peroxide (in words)", "setting": "WT yeast", "result": "less effect than SIP108"}]}]}
